Measurements published in the supplement of paper PMC10307832.

What was measured:
Experiment in all cases: relative viability (nuclei count vs DMSO), 5 days (fraction); higher = more cells survive
[1] = compound: Cn1cncc1[C@@](N)(c1ccc(Cl)cc1)c1ccc2c(c1)c(-c1cccc(Cl)c1)cc(=O)n2C [Tipifarnib] + NC(=O)Nc1cc(-c2cccc(F)c2)sc1C(=O)N[C@H]1CCCNC1 [AZD7762] (partner 0.2 µM)
Method in brief: (§1)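 Lung cancer cell lines were pin-tool dosed in 1536-well plates on the day after seeding, with either a lone drug or a fixed anchor-drug dose plus five library-drug doses (not always all listed) in √10 steps. Nuclei were counted on 4× images after 5 days. Relative viability is the ratio of treated-well to vehicle-well nuclei counts, with each value a median of duplicate plates.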

[2] = compound: Cn1cncc1[C@@](N)(c1ccc(Cl)cc1)c1ccc2c(c1)c(-c1cccc(Cl)c1)cc(=O)n2C [Tipifarnib] + CC(C)C[C@H](NC(=O)[C@H](Cc1ccccc1)NC(=O)c1cnccn1)B(O)O [Bortezomib] (partner 0.002 µM)
Method in brief: as §1

[3] = compound: Cn1cncc1[C@@](N)(c1ccc(Cl)cc1)c1ccc2c(c1)c(-c1cccc(Cl)c1)cc(=O)n2C [Tipifarnib] + CS(=O)(=O)N1CCN(Cc2cc3nc(-c4cccc5[nH]ncc45)nc(N4CCOCC4)c3s2)CC1 [Pictilisib] (partner 1 µM)
Method in brief: as §1

[4] = compound: Cn1cncc1[C@@](N)(c1ccc(Cl)cc1)c1ccc2c(c1)c(-c1cccc(Cl)c1)cc(=O)n2C [Tipifarnib] + C[C@]1(O)C[C@@H](c2nc(-c3ccc4ccc(-c5ccccc5)nc4c3)c3c(N)nccn32)C1 [Linsitinib] (partner 1 µM)
Method in brief: as §1

[5] = compound: Cn1cncc1[C@@](N)(c1ccc(Cl)cc1)c1ccc2c(c1)c(-c1cccc(Cl)c1)cc(=O)n2C [Tipifarnib] + O=C(c1cc(Cc2n[nH]c(=O)c3ccccc23)ccc1F)N1CCN(C(=O)C2CC2)CC1 [Olaparib] (partner 8 µM)
Method in brief: as §1

[6] = compound: Cn1cncc1[C@@](N)(c1ccc(Cl)cc1)c1ccc2c(c1)c(-c1cccc(Cl)c1)cc(=O)n2C [Tipifarnib] + C[C@@H](Oc1cc(-c2cnn(C3CCNCC3)c2)cnc1N)c1c(Cl)ccc(F)c1Cl [Crizotinib] (partner 1 µM)
Method in brief: as §1

[7] = compound: Cn1cncc1[C@@](N)(c1ccc(Cl)cc1)c1ccc2c(c1)c(-c1cccc(Cl)c1)cc(=O)n2C [Tipifarnib] + CC1(C)CCC(c2ccc(Cl)cc2)=C(CN2CCN(c3ccc(C(=O)NS(=O)(=O)c4ccc(N[C@H](CCN5CCOCC5)CSc5ccccc5)c(S(=O)(=O)C(F)(F)F)c4)cc3)CC2)C1 [Navitoclax] (partner 0.5 µM)
Method in brief: as §1

[8] = compound: Cn1cncc1[C@@](N)(c1ccc(Cl)cc1)c1ccc2c(c1)c(-c1cccc(Cl)c1)cc(=O)n2C [Tipifarnib] + COc1cc2c(Oc3ccc(NC(=O)C4(C(=O)Nc5ccc(F)cc5)CC4)cc3F)ccnc2cc1OCCCN1CCOCC1 [Foretinib] (partner 0.25 µM)
Method in brief: as §1

[9] = compound: Cn1cncc1[C@@](N)(c1ccc(Cl)cc1)c1ccc2c(c1)c(-c1cccc(Cl)c1)cc(=O)n2C [Tipifarnib] + Cc1nc(NC(=O)N2CCC[C@H]2C(N)=O)sc1-c1ccnc(C(C)(C)C(F)(F)F)c1 [Alpelisib] (partner 2 µM)
Method in brief: as §1

[10] = compound: Cn1cncc1[C@@](N)(c1ccc(Cl)cc1)c1ccc2c(c1)c(-c1cccc(Cl)c1)cc(=O)n2C [Tipifarnib] + CS(=O)(=O)CCNCc1ccc(-c2ccc3ncnc(Nc4ccc(OCc5cccc(F)c5)c(Cl)c4)c3c2)o1 [Lapatinib] (partner 2 µM)
Method in brief: as §1

[11] = compound: Cn1cncc1[C@@](N)(c1ccc(Cl)cc1)c1ccc2c(c1)c(-c1cccc(Cl)c1)cc(=O)n2C [Tipifarnib]
Method in brief: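 Five library-drug doses spaced by √10 were pinned onto vehicle-anchored 1536-well plates of lung cancer cell lines that had been kept overnight at 37 °C. Cells went 5 days without medium change, then were fixed, permeabilised and Hoechst-stained together, imaged at 4× and counted by MetaXpress. Viability is the ratio of treated-well to vehicle-well nuclei, taken as a median over plates. Plates required control CV below 25% and at least one doubling.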

NCI-H1703
relative viability ([1]; first compound 0.01 µM): 0.139
relative viability ([1]; first compound 0.03162 µM): 0.111
relative viability ([1]; first compound 0.1 µM): 0.125
relative viability ([1]; first compound 0.3162 µM): 0.0872
relative viability ([1]; first compound 1 µM): 0.14
relative viability ([2]; first compound 0.01 µM): 0.296
relative viability ([2]; first compound 0.03162 µM): 0.262
relative viability ([2]; first compound 0.1 µM): 0.304
relative viability ([2]; first compound 0.3162 µM): 0.195
relative viability ([2]; first compound 1 µM): 0.186
relative viability ([3]; first compound 0.01 µM): 0.239
relative viability ([3]; first compound 0.03162 µM): 0.234
relative viability ([3]; first compound 0.1 µM): 0.201
relative viability ([3]; first compound 0.3162 µM): 0.21
relative viability ([3]; first compound 1 µM): 0.214
relative viability ([4]; first compound 0.01 µM): 0.84
relative viability ([4]; first compound 0.03162 µM): 0.323
relative viability ([4]; first compound 0.1 µM): 0.145
relative viability ([4]; first compound 0.3162 µM): 0.274
relative viability ([4]; first compound 1 µM): 0.373
relative viability ([5]; first compound 0.01 µM): 0.427
relative viability ([5]; first compound 0.03162 µM): 0.266
relative viability ([5]; first compound 0.1 µM): 0.16
relative viability ([5]; first compound 0.3162 µM): 0.176
relative viability ([5]; first compound 1 µM): 0.17
relative viability ([6]; first compound 0.01 µM): 0.311
relative viability ([6]; first compound 0.03162 µM): 0.291
relative viability ([6]; first compound 0.1 µM): 0.171
relative viability ([6]; first compound 0.3162 µM): 0.155
relative viability ([6]; first compound 1 µM): 0.196
relative viability ([7]; first compound 0.01 µM): 1.1
relative viability ([7]; first compound 0.03162 µM): 0.563
relative viability ([7]; first compound 0.1 µM): 0.27
relative viability ([7]; first compound 0.3162 µM): 0.359
relative viability ([7]; first compound 1 µM): 0.364
relative viability ([8]; first compound 0.01 µM): 0.343
relative viability ([8]; first compound 0.03162 µM): 0.247
relative viability ([8]; first compound 0.1 µM): 0.325
relative viability ([8]; first compound 0.3162 µM): 0.267
relative viability ([8]; first compound 1 µM): 0.294
relative viability ([9]; first compound 0.01 µM): 0.267
relative viability ([9]; first compound 0.03162 µM): 0.275
relative viability ([9]; first compound 0.1 µM): 0.147
relative viability ([9]; first compound 0.3162 µM): 0.272
relative viability ([9]; first compound 1 µM): 0.21
relative viability ([10]; first compound 0.01 µM): 0.78
relative viability ([10]; first compound 0.03162 µM): 0.706
relative viability ([10]; first compound 0.1 µM): 0.253
relative viability ([10]; first compound 0.3162 µM): 0.319
relative viability ([10]; first compound 1 µM): 0.417
relative viability ([11]; 0.01 µM): 0.853
relative viability ([11]; 0.03162 µM): 0.75
relative viability ([11]; 0.1 µM): 0.287
relative viability ([11]; 0.3162 µM): 0.33
relative viability ([11]; 1 µM): 0.344
